Literature values as cited in patent US8946148B2 (Ambrx, Inc., priority 2007, dated 2015).

Test system: patients with NIDDM and impaired glucose tolerance

In the case of `Cc1c(C)c2c(c(C)c1O)CCC(C)(COc1ccc(CC3SC(=O)NC3=O)cc1)O2` (stereo not shown) [Troglitazone], the “effect on insulin resistance” value is given as “reverse insulin resistance”.
